Values joined by “and” are separate entries in the source; they are usually repeats but may differ in a detail not shown here. Equal values may be shown once. “Also recorded” adds a separate entry of the source.

This is an account of results in patent publication US20240182893A1, “INHIBITION OF FGR REDUCES FIBROSIS” (UNIVERSITY OF PITTSBURGH-OF THE COMMONWEALTH SYSTEM OF …, priority 2021, published 2024).

For data set [1], the system named is target cell line (bottom layer). Briefly: Non-contact transwell coculture with sorted senescent cells from irradiated mouse lungs, profibrotic genes in target cell line. The data set is classed as cell-based. The settings on record: FIG. 14. The text has this: FIG. 14. Upregulation of profibrotic genes in target cells by irradiated mouse lung senescent cells. In a noncontact transwell co-culture system, filter separated (19) sorted irradiated red and irradiated non-red mouse lung cells plated on top layer, there is significant induction of Tgf-β. Collagen 1a1 and collagen 3 in target cell line (bottom layer).
To establish that irradiated tdTOMp16+ senescent cells induce profibrotic genes in other cells, a C57BL/6 target cell line and a noncontact transwell co-culture system were used (Ejaz A et al. Stem Cells. 2019, 37, 791-802) (FIG. 14). Using the tdTOMp16+ stromal cell line, significant induction by RIS red cells of collagen 1al, collagen 3, and TGF-β in C57/B6 target cells was observed. The induction was abrogated by the Fgr inhibitor TL02-59 (Mukherjee A et al. Cell Death Discovery, 2021, 7, 349). It was confirmed that the findings in stromal cells also occur in lung. Red and non-red cells from 20 Gy irradiated tdTOMp16 mouse lungs were tested.

Data set [2] deals with other similar kinases. The experiment in a line: Inhibition of other similar kinases. It counts as biochemical.
The subject of data set [3] is gfp+ bone marrow cells. Briefly: Transwell cell migration assay, gfp+ bone marrow cells towards senescent cells (3-micron filter). It counts as cell-based, mouse. The settings on record: TL02-59 10 nM, 48 h, FIG. 45A, C, D. On the procedure: FIG. 45A-FIG. 45F. […] FIG. 45A—The tdTOMp16+ cells either irradiated or non-irradiated were sorted by FACS for either tdTOM+ or tdTOM− cells, and each population was placed in the bottom chamber of each culture, well separated by a 3-micron filter. Gfp+ bone marrow cells were placed on the top chamber of each well and migration assay was carried out (3-micron membrane). The Fgr inhibitor TL02-59 (10 nM) (Shen K et al. Sci Signal 11(553): eaat5916, 2018) or RS 504393 (10 μM), a Ccl2 inhibitor, which is a CCR2 chemokine receptor antagonist, was added to cultures 24 h later. The migration of gfp+ bone marrow cells from the top chamber through the 3-micron filter to the bottom chamber was imaged and total gfp+ cells were counted. FIG. 45B—Image of gfp+ migrating cells through the filter at 24 h for each condition (×100). At 48 h, emigrated gfp+ cells in the bottom well were counted by FACS. After 48 h, migrating total. (FIG. 45C) gfp+ cells, and (FIG. 45D) gfp+ CD45+ cells were counted by FACS. […] Cell migration from the top wells to the bottom wells was evaluated by imaging and by (FIG. 45F) FACS analysis. (n=3, ****p=0.0001). p-Values were calculated by the t-test.
In vitro transwell experiments. […] The migration of gfp+ cells through the filter to the bottom compartment was measured by imaging the bottom wells and counting gfp+ cells relative to numbers of senescent TOM+ (red) cells. […]

For data set [4], the system named is tdTOMp16+ red senescent cells. Briefly: Chemokine array of media from sorted senescent tdTOMp16+ cells. The data set is classed as cell-based, mouse. The settings on record: TL02-59 10 nM, 72 hours, FIG. 50. The protocol:
FIG. 50. […] Using chemokine array relative amounts of chemokines secreted in the media was measured. (n=2, *, p<0.05, p values were calculated using unpaired t-test).

Data set [5] deals with Fgr (Homo sapiens, UniProt P09769). The settings on record: cited from earlier work.
Data set [6] deals with other similar kinases. The settings on record: cited from earlier work.
For data set [7] the following is noted: mice; cited from earlier work.
For data set [8], the target named is Src-family kinase Fgr (Homo sapiens, UniProt P09769). The settings on record: cited from earlier work.
Chain of Src-family kinase Fgr (P09769 whole entry): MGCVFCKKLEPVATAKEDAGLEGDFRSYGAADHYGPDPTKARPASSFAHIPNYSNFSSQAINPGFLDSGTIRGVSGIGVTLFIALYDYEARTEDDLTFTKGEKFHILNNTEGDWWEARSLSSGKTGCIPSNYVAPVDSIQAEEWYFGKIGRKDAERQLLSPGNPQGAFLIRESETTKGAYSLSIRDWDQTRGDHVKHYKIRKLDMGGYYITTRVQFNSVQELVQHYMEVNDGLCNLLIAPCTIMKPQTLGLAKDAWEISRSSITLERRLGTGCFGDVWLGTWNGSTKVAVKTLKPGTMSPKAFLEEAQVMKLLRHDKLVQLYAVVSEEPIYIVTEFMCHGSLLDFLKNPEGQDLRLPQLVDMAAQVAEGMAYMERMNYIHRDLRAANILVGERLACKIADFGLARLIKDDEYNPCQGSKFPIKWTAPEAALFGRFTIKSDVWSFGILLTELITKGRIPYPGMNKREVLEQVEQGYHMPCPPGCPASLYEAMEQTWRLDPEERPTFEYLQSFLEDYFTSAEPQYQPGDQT

Chain of Fgr (P09769 whole entry, species assumed): as the sequence (P09769 whole entry) above

Take `CCN1CCN(Cc2ccc(NC(=O)c3ccc(C)c(Oc4ncnc5cc(OC)c(OC)cc45)c3)cc2C(F)(F)F)CC1` [TL02-59]: in data set [1] (TL02-59 10 nM), the “induction of Tgf-β, Collagen 1a1 and collagen 3 in target cells by irradiated mouse lung senescent cells” value is “can block senescent cell induction of these genes”. Moreover, the “induction of collagen 3 by RIS red lung cells” value in data set [1] (cells from 20 Gy irradiated tdTOMp16 mouse lungs) is on record as “reduced the induction of collagen 3”. Besides, in data set [2], the “fold greater dose required for inhibition of other similar kinases vs Fgr” value was 10 to 100 fold and 10-to-100 fold. The “migration of gfp+ monocyte/macrophages towards senescent cells from irradiated tdTOMp16+ stromal cell line” value in data set [3] is recorded as “abrogated monocyte/macrophages recruitment; also recorded: significantly reduced the migration; also recorded: inhibited; also recorded: prevents migration”. Moreover, the “secretion of senescence associated secretory chemokines (chemokine array)” value in data set [4] is listed as “reduces secretion of senescence associated secretory chemokines”. Besides, the “kinases inhibited at 10 nM concentration” value in data set [5] (10 nM) is “inhibits only Fgr”. Also, in data set [5], the “concentration with complete inhibition of Fgr” value is on record as “above 10 nM”, the “concentration with partial inhibition of Fgr” value was 0.1 to 1 nM and the “selectivity for Fgr over other kinases” value was “remarkably selective for Fgr; also recorded: Fgr specific in the nanomolar concentration”. Besides, the “concentration required for inhibition of other similar kinases” value in data set [6] is 100 to 1000 nM. Moreover, in data set [7], the oral bioavailability result is listed as “orally bioavailable” and the plasma half-life is 6 h. The primary target kinase result in data set [8] is on record as “primary target”.
